These results are taken from patent US20230295119A1, “SUBSTITUTED PYRIDINES FOR THE TREATMENT OF INFLAMMATORY DISEASES” (GOSSAMER BIO SERVICES, INC., priority 2020, published 2023).

Where only a bound is given, the exact number is not on record here.

The target in assay [1] is TYK2 JH2 domain (Homo sapiens (Human), UniProt P29597). In words: TYK2 JH2 NanoBRET assay. The format is binding. As to conditions: Table 20, read-out: TYK2 IC50. The gist of the method:
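Tracer displacement measured by BRET ratio (acceptor over donor) in live HEK293T cells transfected with a NanoLuc-tagged TYK2 JH2 construct; cells co-exposed to test compound and 0.5 µM final K10 tracer for 2 h before substrate/extracellular inhibitor addition.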

The target of assay [2] is human JAK1 (Homo sapiens (Human), UniProt P23458). In words: JAK1 TR-FRET kinase assay. As to conditions: TR-FRET, JAK1 2.5 nM. The format is biochemical. For orientation: Time-resolved FRET reads energy transfer from a long-lived donor to a nearby acceptor.
The target in assay [3] is human JAK2 (Homo sapiens (Human), UniProt O60674). In words: JAK2 TR-FRET kinase assay. The format is biochemical. As to conditions: JAK2 0.025 nM.
In assay [4] the target is human JAK3 (Homo sapiens (Human), UniProt P52333). Kind of assay: JAK3 TR-FRET kinase assay. Conditions: JAK3 0.0125 nM. The format is biochemical.

One may read the IC50 as the concentration at which inhibition is half-maximal.

Chain of human JAK2 (O60674 whole entry): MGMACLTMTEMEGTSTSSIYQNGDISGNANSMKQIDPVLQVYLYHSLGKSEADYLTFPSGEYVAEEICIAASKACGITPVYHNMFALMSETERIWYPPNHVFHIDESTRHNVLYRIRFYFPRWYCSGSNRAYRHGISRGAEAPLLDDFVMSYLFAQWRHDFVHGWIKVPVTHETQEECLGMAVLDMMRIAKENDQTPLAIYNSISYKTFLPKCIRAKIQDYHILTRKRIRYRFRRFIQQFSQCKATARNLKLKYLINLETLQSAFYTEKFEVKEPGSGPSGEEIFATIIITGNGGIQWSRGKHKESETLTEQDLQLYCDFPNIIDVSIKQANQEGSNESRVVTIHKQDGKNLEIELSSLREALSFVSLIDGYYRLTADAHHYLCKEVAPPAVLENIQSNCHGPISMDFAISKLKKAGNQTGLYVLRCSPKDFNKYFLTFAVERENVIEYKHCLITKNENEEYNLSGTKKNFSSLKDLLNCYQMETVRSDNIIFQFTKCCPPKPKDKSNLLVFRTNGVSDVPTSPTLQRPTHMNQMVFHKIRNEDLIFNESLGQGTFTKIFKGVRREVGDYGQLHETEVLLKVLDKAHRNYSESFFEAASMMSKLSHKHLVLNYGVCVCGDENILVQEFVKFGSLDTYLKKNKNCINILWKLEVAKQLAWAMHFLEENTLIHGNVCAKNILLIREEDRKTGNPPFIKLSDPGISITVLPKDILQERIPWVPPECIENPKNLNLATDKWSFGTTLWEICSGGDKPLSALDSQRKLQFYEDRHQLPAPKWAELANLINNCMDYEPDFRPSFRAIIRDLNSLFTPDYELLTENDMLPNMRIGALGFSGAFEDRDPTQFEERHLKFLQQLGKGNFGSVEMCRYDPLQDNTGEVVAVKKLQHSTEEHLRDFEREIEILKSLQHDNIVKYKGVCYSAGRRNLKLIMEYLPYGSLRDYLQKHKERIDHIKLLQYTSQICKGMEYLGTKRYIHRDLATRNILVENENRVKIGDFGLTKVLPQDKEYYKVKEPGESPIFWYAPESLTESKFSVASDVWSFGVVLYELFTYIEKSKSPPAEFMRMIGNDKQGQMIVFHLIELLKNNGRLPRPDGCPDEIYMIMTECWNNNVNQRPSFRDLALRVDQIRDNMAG
Chain of human JAK3 (P52333 whole entry): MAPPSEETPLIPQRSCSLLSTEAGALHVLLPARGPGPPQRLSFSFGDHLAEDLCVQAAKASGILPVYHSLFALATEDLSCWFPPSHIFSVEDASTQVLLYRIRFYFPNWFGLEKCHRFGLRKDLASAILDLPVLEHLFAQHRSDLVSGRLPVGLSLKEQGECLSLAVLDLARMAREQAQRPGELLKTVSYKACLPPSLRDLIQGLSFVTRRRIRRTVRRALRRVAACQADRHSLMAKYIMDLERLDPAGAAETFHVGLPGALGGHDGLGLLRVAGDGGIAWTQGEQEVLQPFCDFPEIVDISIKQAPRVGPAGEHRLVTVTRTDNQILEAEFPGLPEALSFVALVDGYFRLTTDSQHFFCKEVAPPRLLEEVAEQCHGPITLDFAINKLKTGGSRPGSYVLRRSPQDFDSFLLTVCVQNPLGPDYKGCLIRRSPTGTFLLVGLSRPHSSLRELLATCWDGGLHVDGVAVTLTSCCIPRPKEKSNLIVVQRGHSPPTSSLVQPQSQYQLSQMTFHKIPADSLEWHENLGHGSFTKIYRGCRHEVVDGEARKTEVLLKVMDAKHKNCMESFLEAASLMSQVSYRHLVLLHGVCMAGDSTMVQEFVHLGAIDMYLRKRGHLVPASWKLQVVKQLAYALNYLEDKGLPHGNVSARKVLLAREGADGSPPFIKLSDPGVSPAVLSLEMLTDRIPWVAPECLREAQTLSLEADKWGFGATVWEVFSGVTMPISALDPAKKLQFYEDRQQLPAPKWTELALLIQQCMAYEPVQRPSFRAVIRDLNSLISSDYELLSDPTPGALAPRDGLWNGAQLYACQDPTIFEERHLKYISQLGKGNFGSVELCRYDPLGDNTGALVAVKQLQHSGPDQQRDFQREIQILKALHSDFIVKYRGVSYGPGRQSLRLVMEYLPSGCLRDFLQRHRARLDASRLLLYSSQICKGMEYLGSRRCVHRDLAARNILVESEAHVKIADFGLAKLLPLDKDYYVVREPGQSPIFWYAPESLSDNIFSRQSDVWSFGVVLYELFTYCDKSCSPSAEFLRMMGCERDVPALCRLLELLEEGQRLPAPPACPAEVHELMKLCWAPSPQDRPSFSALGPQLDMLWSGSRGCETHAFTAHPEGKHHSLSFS
Chain of human JAK1 (P23458 whole entry): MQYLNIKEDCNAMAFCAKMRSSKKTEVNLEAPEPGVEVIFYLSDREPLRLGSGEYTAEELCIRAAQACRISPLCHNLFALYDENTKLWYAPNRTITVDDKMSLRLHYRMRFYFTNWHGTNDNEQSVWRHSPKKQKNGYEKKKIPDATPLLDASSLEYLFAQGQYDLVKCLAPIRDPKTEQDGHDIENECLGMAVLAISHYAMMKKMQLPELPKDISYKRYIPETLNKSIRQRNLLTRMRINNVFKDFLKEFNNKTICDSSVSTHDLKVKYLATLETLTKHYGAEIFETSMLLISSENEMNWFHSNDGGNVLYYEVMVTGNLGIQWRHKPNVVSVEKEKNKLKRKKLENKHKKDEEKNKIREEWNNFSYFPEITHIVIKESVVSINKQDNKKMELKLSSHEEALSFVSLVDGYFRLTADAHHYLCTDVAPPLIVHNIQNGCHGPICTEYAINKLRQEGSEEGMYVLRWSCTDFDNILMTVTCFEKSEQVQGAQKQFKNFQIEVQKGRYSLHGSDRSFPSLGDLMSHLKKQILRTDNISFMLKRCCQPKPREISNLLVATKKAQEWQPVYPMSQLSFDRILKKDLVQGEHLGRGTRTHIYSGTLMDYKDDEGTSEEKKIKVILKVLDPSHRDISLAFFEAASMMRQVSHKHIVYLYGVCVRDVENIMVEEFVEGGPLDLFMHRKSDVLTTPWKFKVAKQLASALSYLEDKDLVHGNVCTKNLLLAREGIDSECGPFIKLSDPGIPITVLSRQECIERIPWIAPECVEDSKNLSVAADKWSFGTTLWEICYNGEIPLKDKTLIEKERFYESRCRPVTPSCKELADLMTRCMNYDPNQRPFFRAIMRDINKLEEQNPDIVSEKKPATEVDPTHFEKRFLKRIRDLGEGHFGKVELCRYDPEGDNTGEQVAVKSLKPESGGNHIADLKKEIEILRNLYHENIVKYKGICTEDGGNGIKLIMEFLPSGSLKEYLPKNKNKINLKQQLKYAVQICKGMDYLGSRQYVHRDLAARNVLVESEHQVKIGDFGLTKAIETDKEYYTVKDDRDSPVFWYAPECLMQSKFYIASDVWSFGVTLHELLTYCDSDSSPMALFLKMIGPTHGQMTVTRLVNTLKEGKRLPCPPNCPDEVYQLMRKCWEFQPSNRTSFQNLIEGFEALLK
Chain of TYK2 JH2 domain (P29597 589-875): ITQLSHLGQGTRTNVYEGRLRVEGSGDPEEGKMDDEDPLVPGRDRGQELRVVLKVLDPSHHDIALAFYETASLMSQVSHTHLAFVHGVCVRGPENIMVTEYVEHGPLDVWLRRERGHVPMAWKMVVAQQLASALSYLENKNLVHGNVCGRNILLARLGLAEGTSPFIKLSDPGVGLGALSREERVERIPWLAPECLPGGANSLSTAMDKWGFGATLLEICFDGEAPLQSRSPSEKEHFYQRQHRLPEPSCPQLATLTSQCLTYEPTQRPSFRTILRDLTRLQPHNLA

Turning to `CCC(=O)c1cnc(Nc2cnc(C3(NC)CC3)cn2)cc1Nc1cccc(-c2ncn(C)n2)c1OC` [Compound 9ZZZ], the concentration for half-maximal inhibition (IC50) was 5 to 50 nM in assay [1], ≥ 500 nM in assay [2], ≥ 500 nM in assay [3] and ≥ 500 nM in assay [4].
As to `CCC(=O)c1cnc(Nc2ccc(CN3CC4(CCO4)C3)cn2)cc1Nc1cccc(-c2ncn(C)n2)c1OC` [Compound 9ZZ], the IC50 in assay [1] is < 5 nM; in assay [2] it was ≥ 500 nM; in assay [3] it was ≥ 500 nM; in assay [4] it was ≥ 500 nM.
In the case of `CCC(=O)c1cnc(Nc2ccc(C(C)NCC(F)(F)F)cn2)cc1Nc1cccc(-c2ncn(C)n2)c1OC` (stereo not drawn) [Compound 9Z], the IC50 was 5 to 50 nM in assay [1], ≥ 500 nM in assay [2], 50 to 500 nM in assay [3] and ≥ 500 nM in assay [4].
Regarding `CCC(=O)c1cnc(Nc2ccc(OCCN3CCCC3)cn2)cc1Nc1cccc(-c2ncn(C)n2)c1OC` [Compound 10A, 1-(4-((2-methoxy-3-(1-methyl-1H-1,2,4-triazol-3-yl)phenyl)amino)-6-((5-(2-(pyrrolidin-1-yl)ethoxy)pyridin-2-yl)amino)pyridin-3-yl)propan-1-one], the half-maximal inhibitory concentration (IC50) in assay [1] is < 5 nM; in assay [2], ≥ 500 nM; in assay [3], ≥ 500 nM; in assay [4], ≥ 500 nM.
As to `CCC(=O)c1cnc(Nc2ccc(CCN(C)C)cn2)cc1Nc1cccc(-c2ncn(C)n2)c1OC` [Compound 11A, 1-(6-((5-(2-(dimethylamino)ethyl)pyridin-2-yl)amino)-4-((2-methoxy-3-(1-methyl-1H-1,2,4-triazol-3-yl)phenyl)amino)pyridin-3-yl)propan-1-one], the IC50 in assay [1] was < 5 nM; in assay [2], ≥ 500 nM; in assay [3], ≥ 500 nM; in assay [4] it was ≥ 500 nM.
With `CCC(=O)c1cnc(Nc2ccc(CCNC)cn2)cc1Nc1cccc(-c2ncn(C)n2)c1OC` [Compound 11B], the half-inhibitory concentration (IC50) in assay [1] is 5 to 50 nM; in assay [2], ≥ 500 nM; in assay [3], ≥ 500 nM; in assay [4], ≥ 500 nM.
Turning to `CCC(=O)c1cnc(Nc2ccc(CCN3CCCC3)cn2)cc1Nc1cccc(-c2ncn(C)n2)c1OC` [Compound 11C], the IC50 in assay [1] is < 5 nM; in assay [2] it was ≥ 500 nM; in assay [3] it was ≥ 500 nM; in assay [4], ≥ 500 nM.
For the compound `CCC(=O)c1cnc(Nc2ccc(CCN(C)C)nn2)cc1Nc1cccc(-c2ncn(C)n2)c1OC` [Compound 11D], the 50% inhibitory concentration (IC50) was 5 to 50 nM in assay [1], ≥ 500 nM in assay [2], ≥ 500 nM in assay [3] and ≥ 500 nM in assay [4].
As to `CCC(=O)c1cnc(Nc2ccc(CCN3CCCC3)nn2)cc1Nc1cccc(-c2ncn(C)n2)c1OC` [Compound 11E], the IC50 is 50 to 500 nM in assay [1], ≥ 500 nM in assay [2], ≥ 500 nM in assay [3] and ≥ 500 nM in assay [4].
`CCC(=O)c1cnc(Nc2cc(CCN(C)C)ncn2)cc1Nc1cccc(-c2ncn(C)n2)c1OC` [Compound 11F]: the concentration for half-maximal inhibition (IC50) in assay [1] is < 5 nM; in assay [2], ≥ 500 nM; in assay [3], ≥ 500 nM; in assay [4] it was ≥ 500 nM.
For the compound `CCC(=O)c1cnc(Nc2cc(CCN3CCCC3)ncn2)cc1Nc1cccc(-c2ncn(C)n2)c1OC` [Compound 11G], the half-maximal inhibitory concentration (IC50) in assay [1] is < 5 nM; in assay [2], ≥ 500 nM; in assay [3] it was ≥ 500 nM; in assay [4], 50 to 500 nM.
As for `CCC(=O)c1cnc(Nc2cnc(CCNC)cn2)cc1Nc1cccc(-c2ncn(C)n2)c1OC` [Compound 11H], the half-inhibitory concentration (IC50) in assay [1] was 50 to 500 nM; in assay [2] it was ≥ 500 nM; in assay [3], ≥ 500 nM; in assay [4], ≥ 500 nM.
As to `CCC(=O)c1cnc(Nc2cnc(CCN(C)C)cn2)cc1Nc1cccc(-c2ncn(C)n2)c1OC` [Compound 11I], the half-maximal inhibitory concentration (IC50) is 5 to 50 nM in assay [1], ≥ 500 nM in assay [2], ≥ 500 nM in assay [3] and ≥ 500 nM in assay [4].
For `CCC(=O)c1cnc(Nc2cnc(CCN3CCCC3)cn2)cc1Nc1cccc(-c2ncn(C)n2)c1OC` [Compound 11J], the concentration for half-maximal inhibition (IC50) in assay [1] was 5 to 50 nM; in assay [2], ≥ 500 nM; in assay [3], ≥ 500 nM; in assay [4], ≥ 500 nM.
Take `CCC(=O)c1cnc(Nc2ccc(S(C)(=O)=O)cn2)cc1Nc1cccc(-c2ncn(C)n2)c1OC` [Compound 12A, 1-(4-((2-methoxy-3-(1-methyl-1H-1,2,4-triazol-3-yl)phenyl)amino)-6-((5-(methylsulfonyl)pyridin-2-yl)amino)pyridin-3-yl)propan-1-one]: the IC50 in assay [1] was < 5 nM; in assay [2] it was ≥ 500 nM; in assay [3], ≥ 500 nM; in assay [4], ≥ 500 nM.
Take `CCC(=O)c1cnc(Nc2ccc(CS(C)(=O)=O)cn2)cc1Nc1cccc(-c2ncn(C)n2)c1OC` [Compound 13A, 1-(4-((2-methoxy-3-(1-methyl-1H-1,2,4-triazol-3-yl)phenyl)amino)-6-((5-((methylsulfonyl)methyl)pyridin-2-yl)amino)pyridin-3-yl)propan-1-one]: the concentration for half-maximal inhibition (IC50) was < 5 nM in assay [1], ≥ 500 nM in assay [2], 50 to 500 nM in assay [3] and 50 to 500 nM in assay [4].
As to `CCC(=O)c1cnc(Nc2ncc(CS(C)(=O)=O)cc2F)cc1Nc1cccc(-c2ncn(C)n2)c1OC` [Compound 13AA], the 50% inhibitory concentration (IC50) was 5 to 50 nM in assay [1], ≥ 500 nM in assay [2], ≥ 500 nM in assay [3] and ≥ 500 nM in assay [4].
As for `CCC(=O)c1cnc(Nc2ccc(S(N)(=O)=O)cn2)cc1Nc1cccc(-c2ncn(C)n2)c1OC` [Compound 13B], the IC50 in assay [1] is < 5 nM; in assay [2], ≥ 500 nM; in assay [3] it was ≥ 500 nM; in assay [4] it was ≥ 500 nM.
`CCC(=O)c1cnc(Nc2ccc(S(=O)(=O)NC)cn2)cc1Nc1cccc(-c2ncn(C)n2)c1OC` [Compound 13C]: the half-maximal inhibitory concentration (IC50) in assay [1] is 5 to 50 nM; in assay [2] it was ≥ 500 nM; in assay [3], ≥ 500 nM; in assay [4], ≥ 500 nM.
For the compound `CCC(=O)c1cnc(Nc2ccc(S(=O)(=O)N3CCOCC3)cn2)cc1Nc1cccc(-c2ncn(C)n2)c1OC` [Compound 13E], the concentration for half-maximal inhibition (IC50) was < 5 nM in assay [1], ≥ 500 nM in assay [2], ≥ 500 nM in assay [3] and ≥ 500 nM in assay [4].
Turning to `CCC(=O)c1cnc(Nc2ccc(CS(C)(=N)=O)cn2)cc1Nc1cccc(-c2ncn(C)n2)c1OC` (stereo not drawn) [Compound 13F], the 50% inhibitory concentration (IC50) is 5 to 50 nM in assay [1], ≥ 500 nM in assay [2], ≥ 500 nM in assay [3] and ≥ 500 nM in assay [4].
Take `CCC(=O)c1cnc(Nc2ccc(S(=O)(=O)CC)cn2)cc1Nc1cccc(-c2ncn(C)n2)c1OC` [Compound 13G]: the IC50 in assay [1] was < 5 nM; in assay [2], ≥ 500 nM; in assay [3], ≥ 500 nM; in assay [4] it was ≥ 500 nM.
As to `CCC(=O)c1cnc(Nc2ccc(S(=O)(=O)C3CC3)cn2)cc1Nc1cccc(-c2ncn(C)n2)c1OC` [Compound 13H], the IC50 in assay [1] is < 5 nM; in assay [2] it was ≥ 500 nM; in assay [3] it was 50 to 500 nM; in assay [4] it was 50 to 500 nM.
In the case of `CCC(=O)c1cnc(Nc2ccc(S(C)(=O)=O)cn2)cc1Nc1nccc(-c2ncn(C)n2)c1OC` [Compound 13I], the half-maximal inhibitory concentration (IC50) is < 5 nM in assay [1], ≥ 500 nM in assay [2], ≥ 500 nM in assay [3] and ≥ 500 nM in assay [4].
